The values below come from article PMC10970734, “Identification of an Intravenous Injectable NK1 Receptor Antagonist for Use in Traumatic Brain Injury” (International Journal of Molecular Sciences, 2024).

pKi: −log10 of the molar value.

For one test, the system named is rodent model of TBI. Description: BBB permeability after TBI, Evan's blue extravasation. The following applies: rat TBI. It is filed as in vivo, Sprague Dawley rats.
A further test addresses NK1R (Homo sapiens, UniProt P25103). The experiment in a line: Radioligand binding, competition for [3H]SP, CHO cells transfected with human NK1R. Set-up: expressed in transfected cells; host or cells: CHO cells (ATCC). Particulars: competition for [3H]SP binding (0.6 nM). As for the experimental part:
The affinity of EUC-001 for the human NK1R was assessed by radioligand binding assays using Chinese hamster ovary (CHO) cells transfected with the human NK1R. Radioligand binding studies, evaluating competition for [^3H]
Radioligand binding assays were performed using CHO cells (ATCC, Middlesex, UK) transfected with the human NK1R (accession number NM_001058). Assays were performed in 50 mM HEPES buffer (pH 7.4; Sigma-Aldrich, St Louis, MO, USA) containing BSA (0.04%; Sigma-Aldrich, St Louis, MO, USA), leupeptin (8 μg/mL; Sigma-Aldrich, St Louis, MO, USA), MnCl2 (3 mM; Sigma-Aldrich, St Louis, MO, USA) and phosphoramidon (2 μM; Sigma-Aldrich, St Louis, MO, USA). In total, 250 μL of membrane suspension was incubated with 125 μL of unlabelled EUC-001 (synthesized by Hoffmann-La Roche, Basel, Switzerland) dissolved in assay buffer, and 125 μL of [^3H]SP (final concentration 0.6 nM; Amersham Biosciences, Amersham, UK). Displacement curves were determined with seven concentrations of EUC-001. Following incubation (60 min at room temperature), the mixture was rapidly filtered through pre-soaked Whatman GF/C filters (Sigma-Aldrich, St Louis, MO, USA) and washed with 2 × 2 mL HEPES buffer (Sigma-Aldrich, St Louis, MO, USA), and bound radioactivity was measured by scintillation counting (Beckman Coulter, Brea, CA, USA). Assays were performed in triplicate in 2 separate experiments.

Sequence of NK1R (P25103 whole entry): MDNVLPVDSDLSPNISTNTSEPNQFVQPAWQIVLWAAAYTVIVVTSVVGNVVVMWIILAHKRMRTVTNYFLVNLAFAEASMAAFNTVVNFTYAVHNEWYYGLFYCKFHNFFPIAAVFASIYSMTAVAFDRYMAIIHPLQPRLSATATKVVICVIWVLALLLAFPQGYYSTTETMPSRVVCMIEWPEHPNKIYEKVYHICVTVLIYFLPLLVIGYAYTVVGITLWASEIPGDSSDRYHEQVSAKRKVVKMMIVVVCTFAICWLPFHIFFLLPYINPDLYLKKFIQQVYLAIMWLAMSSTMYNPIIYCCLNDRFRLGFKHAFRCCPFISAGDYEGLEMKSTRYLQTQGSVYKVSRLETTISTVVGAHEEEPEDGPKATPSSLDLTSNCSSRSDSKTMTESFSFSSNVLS
From the text for rodent model of TBI: Injury was induced in halothane-anesthetized (ProVet) male Sprague Dawley rats (400 ± 20 g) using acceleration-induced impact TBI [29, 93]. This model involves impacting a 10 mm diameter, 3 mm thick stainless steel disc fixed centrally to the exposed skull between the lambda and bregma with an accelerating impactor. The impactor was a 450 g brass weight dropped from a height of 2 m. […] All animals were fed and watered ad libitum before the induction of injury. During both surgery and the immediate recovery phase, rat rectal temperature was maintained using a thermostatically controlled heating pad. Immediately after injury, animals were manually ventilated until stable respiration was restored, usually in <5 min. After injury, all wounds were sutured. Blood pressure was monitored, both before and after injury, using a femoral arterial line.
The optimal dose of the NK1 receptor antagonist was determined from the level of BBB permeability using EB dye extravasation as the BBB marker [94, 95]. Briefly, EUC-001 was administered intravenously 30 min after TBI at doses ranging between 0.03 and 10 mg/kg in six steps (n = 3 per group). […] The supernatants were measured at 610 nm for absorbance of EB using a spectrophotometer (Cole-Parmer, Vernon Hills, IL, USA). Evans blue is expressed as mg/mg of the brain tissue against a standard curve.

As a reminder, the pKi is the negative decadic logarithm of the Ki, by convention in mol/L. Higher therefore signals a low Ki. As for `Cc1ccccc1-c1cc(N2CCN(C)CC2)ncc1C(=O)N(C)Cc1cc(C(F)(F)F)cc(C(F)(F)F)c1` [EUC-001, N-(3,5-Bis-trifluoromethyl-benzyl)-N-methyl-6-(4-methyl-piperazine-1-yl)-4-o-tolyl-nicotinamide], in the test with rodent model of TBI (10 mg/kg 30 min post-injury, tissues 5 h after injury), the “Evan's blue leakage relative to drug vehicle” value is on record as “significant reduction”. The “IC50, decrease in Evan's blue extravasation” value in the test on rodent model of TBI (bolus iv 30 min after injury, 0.03-10 mg/kg) was 0.43 mg/kg. The compound further showed a negative logarithm of the Ki (pKi) at NK1R of 9.24.
